Results as given in US8487108B2, “Piperidinyl carbamate intermediates for the synthesis of aspartic protease inhibitors” (Vitae Pharmaceuticals, Inc., priority 2005, dated 2013).

The compounds below were run against T1, trypsin-activated recombinant human renin (Homo sapiens, UniProt P00797) (assay: Renin fluorescence assay (internally quenched peptide substrate)). Settings: compounds I*.
T1 sequence (P00797 67-406): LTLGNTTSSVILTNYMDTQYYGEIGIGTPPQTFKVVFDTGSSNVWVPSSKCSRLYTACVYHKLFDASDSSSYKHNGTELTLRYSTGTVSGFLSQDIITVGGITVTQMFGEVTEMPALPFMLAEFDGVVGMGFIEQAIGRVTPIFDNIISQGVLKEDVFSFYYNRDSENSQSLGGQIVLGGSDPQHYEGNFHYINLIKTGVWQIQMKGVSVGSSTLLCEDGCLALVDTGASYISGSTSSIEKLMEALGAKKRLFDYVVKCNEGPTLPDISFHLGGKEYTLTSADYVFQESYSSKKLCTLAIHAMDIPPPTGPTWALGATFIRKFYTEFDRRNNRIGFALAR
Assay type: biochemical
Method: The sequence of this peptide corresponds to the sequence of human angiotensinogen. The following test protocol can be used. All reactions are carried out in a flat bottom white opaque microtiter plate. A 4 μL aliquot of 400 μM renin substrate (DABCYL-γ-[…]) in 192 μL assay buffer (50 mM BES, 150 mM NaCl, 0.25 mg/mL bovine serum albumin, pH7.0) is added to 4 μL of test compound in DMSO at various concentrations ranging from 10 μM to 1 nM final concentrations. Next, 100 μL of trypsin-activated recombinant human renin (final enzyme concentration of 0.2-2 nM) in assay buffer is added, and the solution is mixed by pipetting. The increase in fluorescence at 495 nm (excitation at 340 nm) is measured for 60-360 minutes at rt using a Perkin-Elmer Fusion microplate reader. The slope of a linear portion of the plot of fluorescence-increase as a function of time is then determined, and the rate is used for calculating percent inhibition in relation to uninhibited control. […] (Wang G. T. et al. Anal. Biochem. 1993, 210, 351; Nakamura, N. et al. J. Biochem. (Tokyo) 1991, 109, 741; Murakami, K. et al. Anal Biochem. 1981, 110, 232).
With `CNC[C@H](CC1CCCCCC1)NC(=O)N1CCC[C@@H]([C@@H](OCCNC(=O)OC)c2cccc(Cl)c2)C1` [I*-84a, methyl 2-((R)-(3-chlorophenyl)((R)-1-((S)-1-cycloheptyl-3-(methylamino)propan-2-ylcarbamoyl)piperidin-3-yl)methoxy)ethylcarbamate] the IC50 was < 1 nM. For `CC[C@@H](N)[C@H](CC1CCCCC1)NC(=O)N1CCC[C@@H]([C@@H](OCCNC(=O)OC)c2cccc(Cl)c2)C1` [I*-83a, methyl 2-((R)-((R)-1-((2S,3R)-3-amino-1-cyclohexylpentan-2-ylcarbamoyl)piperidin-3-yl)(3-chlorophenyl)methoxy)ethylcarbamate], the IC50 was < 1 nM. In the case of `CNC[C@@H](NC(=O)N1CCC[C@@H]([C@@H](OCCNC(=O)OC)c2cccc(F)c2)C1)[C@@H](O)C1CCCCC1` [I*-48a, methyl 2-((R)-((R)-1-((1S,2R)-1-cyclohexyl-1-hydroxy-3-(methylamino)propan-2-ylcarbamoyl)piperidin-3-yl)(3-fluorophenyl)methoxy)ethylcarbamate], the IC50 is reported as < 10 nM. `COCC(C)(C)C[C@H](N)CNC(=O)N1CCC[C@@H]([C@@H](OCCNC(=O)OC)c2cccc(F)c2)C1` [I*-14a, methyl 2-((R)—((R)-1-((S)-2-amino-5-methoxy-4,4-dimethylpentylcarbamoyl)piperidin-3-yl)(3-fluorophenyl)methoxy)ethylcarbamate] was tested, and the IC50 was > 50 nM. In the case of `CNC[C@H](CC1CCCCC1)NC(=O)N1CCC[C@@H]([C@@](C)(OCC(=O)NC)c2cccc(Cl)c2)C1` [I*-25a, (R)-3-((R)-1-(3-chlorophenyl)-1-(2-(methylamino)-2-oxoethoxy)ethyl)-N—((S)-1-cyclohexyl-3-(methylamino)propan-2-yl)piperidine-1-carboxamide], the IC50 is reported as > 50 nM. `CNC[C@H](CC1CCCOC1)NC(=O)N1CCC[C@@H]([C@@](O)(CCCNC(=O)OC)c2cccc(Cl)c2F)C1` (stereo partly drawn) [I*-139a, methyl (S)-4-(3-chloro-2-fluorophenyl)-4-hydroxy-4-((3R)-1-((S)-1-(methylamino)-3-(tetrahydro-2H-pyran-3-yl)propan-2-ylcarbamoyl)piperidin-3-yl)butylcarbamate] was tested, and the IC50 was < 10 nM. For `CNC[C@H](CC1(C)CCCCC1)NC(=O)N1CCC[C@@H]([C@@H](OCCNC(=O)OC)c2cccc(Cl)c2)C1` [I*-90a, methyl 2-((R)-(3-chlorophenyl)((R)-1-((S)-1-(methylamino)-3-(1-methylcyclohexyl)propan-2-ylcarbamoyl)piperidin-3-yl)methoxy)ethylcarbamate], the IC50 was < 1 nM. With `CNC[C@H](CC1CCOCC1)NC(=O)N1CCC[C@@H]([C@@H](OCCNC(=O)OC)c2cccs2)C1` [I*-15a, methyl 2-((R)-((R)-1-((S)-1-(methylamino)-3-(tetrahydro-2H-pyran-4-yl)propan-2-ylcarbamoyl)piperidin-3-yl)(thiophen-2-yl)methoxy)ethylcarbamate] the IC50 was > 50 nM. For `CNC[C@H](CC1CCCCC1)NC(=O)N1CCC[C@@H](C(OCCNC(=O)OC)c2cc(Cl)ccc2F)C1` (stereo partly drawn) [I*-116a, methyl 2-((5-chloro-2-fluorophenyl)((R)-1-((S)-1-cyclohexyl-3-(methylamino)propan-2-ylcarbamoyl)piperidin-3-yl)methoxy)ethylcarbamate], the IC50 was < 10 nM. `CNC[C@H](CC1CCOCC1)NC(=O)N1CCC[C@@H]([C@H](OCCNC(=O)OC)c2cccs2)C1` [I*-16a, methyl 2-((S)-((R)-1-((S)-1-(methylamino)-3-(tetrahydro-2H-pyran-4-yl)propan-2-ylcarbamoyl)piperidin-3-yl)(thiophen-2-yl)methoxy)ethylcarbamate] was tested, and the IC50 was > 50 nM. For `COC(=O)NCCO[C@@H](c1cccc(Cl)c1)[C@@H]1CCCN(C(=O)N[C@@H]2CNCC[C@H]2CC2CCC2)C1` (relative stereo) [I*-44a, methyl 2-((R)-(3-chlorophenyl)((R)-1-((3S*,4R*)-4-(cyclobutylmethyl)piperidin-3-ylcarbamoyl)piperidin-3-yl)methoxy)ethylcarbamate], the IC50 was < 10 nM. `CNC[C@H](CC12CC3CC(CC1C3)C2)NC(=O)N1CCC[C@@H]([C@@](C)(OCCNC(=O)OC)c2cccc(Cl)c2)C1` [I*-151a, methyl 2-((R)-1-(3-chlorophenyl)-1-((3R)-1-((S)-1-(3-noradamantyl)-3-(methylamino)propan-2-ylcarbamoyl)piperidin-3-yl)ethoxy)ethylcarbamate] was tested, and the IC50 was < 1 nM. For `CNC[C@H](CC1CCC(C)CC1)NC(=O)N1CCC[C@@H]([C@@H](OCCNC(=O)OC)c2cccc(Cl)c2)C1` (stereo partly drawn) [I*-86a, methyl 2-((R)-(3-chlorophenyl)((R)-1-((S)-1-(methylamino)-3-(4-methylcyclohexyl)propan-2-ylcarbamoyl)piperidin-3-yl)methoxy)ethylcarbamate], the IC50 was < 1 nM. In the case of `CNC[C@@H](C[C@H]1CCCC[C@@H]1O)NC(=O)N1CCC[C@@H]([C@@H](OCCNC(=O)OC)c2cccc(Cl)c2)C1` (relative stereo) [I*-104a, methyl 2-((R)-(3-chlorophenyl)((R)-1-((R)-1-((1R*,2S*)-2-hydroxycyclohexyl)-3-(methylamino)propan-2-ylcarbamoyl)piperidin-3-yl)methoxy)ethylcarbamate], the IC50 is reported as < 20 nM. In the case of `CNC[C@H](CC1CCCCC1)NC(=S)N1CCC[C@@H]([C@@H](OCCNC(=O)OC)c2cccc(Cl)c2)C1` [I*-111a, methyl 2-((R)-(3-chlorophenyl)((R)-1-((S)-1-cyclohexyl-3-(methylamino)propan-2-ylcarbamothioyl)piperidin-3-yl)methoxy)ethylcarbamate], the IC50 is reported as < 1 nM. With `CNC[C@H](C[C@@H]1CCCOCC1)NC(=O)N1CCC[C@@H]([C@@H](OCCNC(=O)OC)c2cccc(Cl)c2)C1` [I*-99a, methyl 2-((R)-(3-chlorophenyl)((R)-1-((S)-1-(methylamino)-3-((S)-oxepan-4-yl)propan-2-ylcarbamoyl)piperidin-3-yl)methoxy)ethylcarbamate] the IC50 was < 10 nM. In the case of `CNC[C@H](C[C@H]1CCCOC1)NC(=O)N1CCC[C@@H]([C@@](O)(CCCNC(=O)OC)c2cccc(Cl)c2F)C1` [I*-142a, methyl (S)-4-(3-chloro-2-fluorophenyl)-4-hydroxy-4-((R)-1-((S)-1-(methylamino)-3-((R)-tetrahydro-2H-pyran-3-yl)propan-2-ylcarbamoyl)piperidin-3-yl)butylcarbamate], the IC50 is reported as < 10 nM. `CNC[C@@H](NC(=O)N1CCC[C@@H]([C@@H](OCCNC(=O)OC)c2cccc(Cl)c2)C1)[C@@H](O)C1CCCC1` [I*-67a, methyl 2-((R)-(3-chlorophenyl)((R)-1-((1S,2R)-1-cyclopentyl-1-hydroxy-3-(methylamino)propan-2-ylcarbamoyl)piperidin-3-yl)methoxy)ethylcarbamate] was tested, and the IC50 was < 10 nM. `CNC[C@H](CC1CCOCC1)NC(=O)N1CCC[C@@H]([C@@H](OCCNC(=O)OC)c2cccc(C)c2)C1` [I*-20a, methyl 2-((R)-((R)-1-((S)-1-(methylamino)-3-(tetrahydro-2H-pyran-4-yl)propan-2-ylcarbamoyl)piperidin-3-yl)(m-tolyl)methoxy)ethylcarbamate] was tested, and the IC50 was < 50 nM. `CNC[C@H](C[C@H]1CCCCOC1)NC(=O)N1CCC[C@@H]([C@@H](OCCNC(=O)OC)c2cccc(Cl)c2)C1` [I*-106a, methyl 2-((R)-(3-chlorophenyl)((R)-1-((S)-1-(methylamino)-3-((R)-oxepan-3-yl)propan-2-ylcarbamoyl)piperidin-3-yl)methoxy)ethylcarbamate] was tested, and the IC50 was < 1 nM. With `CNC[C@H](C[C@H]1CCC(=O)N(C)C1)NC(=O)N1CCC[C@@H]([C@@H](OCCNC(=O)OC)c2cccc(F)c2)C1` [I*-76a, methyl 2-((R)-(3-fluorophenyl)((R)-1-((S)-1-((R)-1-methyl-6-oxopiperidin-3-yl)-3-(methylamino)propan-2-ylcarbamoyl)piperidin-3-yl)methoxy)ethylcarbamate] the IC50 was > 50 nM. In the case of `CNC[C@H](CC1CCCC1)NC(=O)N1CCC[C@@H]([C@@H](OCCNC(=O)OC)c2cccc(F)c2)C1` [I*-5a, methyl 2-((R)—((R)-1-((S)-1-cyclopentyl-3-(methylamino)propan-2-ylcarbamoyl)piperidin-3-yl)(3-fluorophenyl)methoxy)ethylcarbamate], the IC50 is reported as < 10 nM. With `CNC[C@H](CC1CCOCC1)NC(=O)N1CCC[C@@H]([C@@H](OCCNC(=O)OC)c2cc(Cl)ccc2C)C1` [I*-101a, methyl 2-((R)-(5-chloro-2-methylphenyl)((R)-1-((S)-1-(methylamino)-3-(tetrahydro-2H-pyran-4-yl)propan-2-ylcarbamoyl)piperidin-3-yl)methoxy)ethylcarbamate] the IC50 was < 10 nM.
